Assay results reported in patent US4239901A, “Pyrazol-1-ylphenylacetic acids” (Byk Gulden Lomberg Chemische Fabrik GmbH, priority 1976, dated 1980).
Like-named read-outs stand apart in the source and are kept apart here.

Assays:
[1] = system: pain reaction provoked in the rat through bending of an inflamed ankle joint; experiment: Analgesic effect, pain reaction provoked through bending of an inflamed ankle joint (AgNO3 inflammation); conditions: for ED25: Rattus norvegicus, po, read-out: Analgesic effect ED25 (= dose which in 25% of the animals completely suppresses the pain reaction); for Therap. Quotient LD50/ED25: Table 5, LD50 mouse i.p. / ED25 rat oral, analgesic
Protocol: The influence of the compounds which were to be tested on the pain reaction provoked in the rat through bending of an inflamed tarsal joint (AgNO3 inflammation) was determined as follows:
In imitation of HOFFMEISTER et al [Arzneim.Forsch. […] The animals are kept at 24° C. and receive as food Altromin®R and water ad libitum. […] All the positively-reacting animals are concentrated in groups of 10 animals. The compounds which are to be tested are administered orally in a liquid volume of 20 ml/kg 1 hour before the AgNO3 application; the untreated control animals receive the corresponding amount of tap water.
Within 5 hours after administration of the substance the number of reacting animals is ascertained at hourly intervals.
As measure for the analgesic effect there serves the maximum % proportion of the protected animals within 5 hours after administration of the substance [referred to the number of reacting animals of the control group (=100%)]

yeast fever of the rat = experiment: Antipyretic effect, yeast fever of the rat; assay type: in vivo, rat (female Sprague-Dawley); conditions: read-out: Antipyretic effect ED0.75 (dose which lowers the yeast fever of the rat by 0.75° C.)
Protocol: The antipyretic effect is determined from the influence of the compounds to be tested on the yeast fever of the rat.
In female Sprague-Dawley rats (in each series of experiments, 30 rats in groups of 5 animals; animal weight 170-200 g) a hyperthermia is produced through subcutaneous injection (neck) of 20 ml/kg of a 20% strength aqueous brewer's yeast suspension (brewers' yeast "Heliosan"/Hefereformwerk Radolfzell). 24 hours after the yeast injection, the body temperature is measured rectally at hourly intervals.
After a preliminary measurement the compounds which are to be tested are administered to the animals orally in a liquid volume of 5 ml/kg; a control group receives the corresponding amount of tap water. Food (Altromin®R, water ad libitum) was withheld from the rats 18 hours beforehand. The rats are kept at about 23° C.
As measure for the antipyretic effect there serves the maximum lowering of temperature (with reference to the temperature of the preliminary measurement, i.e. immediately before administration of the substance) in the course of 4 hours. The body temperature is measured with a Iastomed H (Braun electronic).

[2] = system: granulation tissue formation in the rat; conditions: Table 3; for Therapeutic Quotient LD50/ED20: LD50 mouse i.p. / ED20 rat oral
Protocol: Test procedure for the investigation of the influence of the compounds which are to be tested on granulation tissue formation after cotton-wool implantation in the rat (so-called cotton pellet method):
Closure of the skin cut is effected by means of clips.
On seven consecutive days the compounds which are to be tested (as sodium salt in aqueous solution) or the corresponding amount (5 ml/kg/day) of tap water (=control group) are administered orally daily.
On the eighth day the animals are killed, the cotton-wool granulomata are cautiously freed without cutting, i.e. preserving the fibrous capsule, dried (15 hours at 120° C.) and weighed. By deducting the weight component of the cotton-wool pellets the amount of newly formed granulation tissue is obtained.
As measure for the anti-proliferative effect of a compound there serves the percentage lessening of the average granuloma dry weight of a treated group (=16 granulomata) compared to the control group (=100%).

[3] = system: carrageenin oedema of rat hind paw; experiment: Inhibition of carrageenin oedema of rat hind paw; conditions: for ED40 / inhibition at 100 mg/kg: Rattus norvegicus; for ED40: po, read-out: Inhibition of carrageenin oedema of rat hind paw by 40% (=ED40) after single oral dose; for Therapeutic Quotient LD50/ED40: Table 2, LD50 mouse i.p. / ED40 rat oral; for inhibition at 100 mg/kg: read-out: oedema inhibition
Protocol: The influence of the compounds which were to be tested on carrageenin oedema of rat hind paw was determined as follows:
Female Sprague-Dawley rats (groups of, in each instance, 10 animals; weight of each animal 140-170 g) from which food (Altromin®R, water ad libitum) is withheld about 16 hours beforehand are each injected subplantarly in the right hind paw with 0.05 ml of a 1% strength carrageenin suspension 1 hour after oral administration of the compounds which are to be tested. The rats are kept at 24° C.
The determination of the paw volume of each rat (in each case, 2-3 individual measurements) is effected plethysmometrically before and 2 and 4 hours after oedema provocation.
As measure for the antiphlogistic effect there serves the average percentage oedema inhibition (i.e. the average from the measured values obtained 3 and 5 hours after administration of the substance).
The determination of the paw volume is effected plethysmometrically. Measuring principle: the liquid volume displaced by the rat paw is registered digitally via an electromechanical pressure converter (Statham P 23 V, 0-200 mm Hg).
The stated doses of the medicaments tested were administered in a liquid volume of 20 ml/kg.

[4] = system: adjuvant arthritis in the rat (Mycobacterium butyricum); experiment: Anti-arthritic effect (adjuvant arthritis); assay type: in vivo, rat (male Sprague-Dawley); conditions: Table 4, LD50 mouse i.p. / ED25 rat oral
Protocol: In imitation of the method described by NEWBOULD and PERRINE et al. [NEWBOULD, B. B.; Brit. […] Pharmacodyn. […] Antiphlogistic agents inhibit this swelling reaction.
Male Sprague-Dawley rats (150-190 g) are each injected intradermally into the tail root on day zero with 0.1 ml/animal of a 0.5% strength Myobact. butyrum/paraffin oil suspension. […] On the 17th day after administration of adjuvant, all positively-reacting animals (paw volume increase at least 30%) are selected and concentrated in groups of 10 animals with equal paw volume distribution.
The compounds to be tested are now administered on the following 5 days, that is to say from the 17th to the 21st day after administration of adjuvant, once daily orally in 10 ml/kg of liquid.
As measure for the anti-arthritic effect there serves the decrease of the paw swelling on the 21st day after the administration of adjuvant, referred in each case to the paw swelling of the control group (=100%); the paw volume is determined plethysmometrically.

in vivo = conditions: mouse, ip
mouse = conditions: for Lethal effect LD50 after single intraperitoneal administration to the mouse: Table 3, single i.p.; for LD50 after a single administration mouse: Table 4, single i.p.; for Toxicity after single intraperitoneal administration to the mouse LD50: Table 5, single i.p.; for Toxicity after single intraperitoneal administration in the mouse LD50: Table 6, single i.p.

SMILES	ED25 [1]	ED (0.75 degC) (yeast fever of the rat; Table 6, rat, oral)	Inhibition of granulation tissue formation after subcutaneous cotton-wool implantation by 20% (=ED20) in the rat after 7-day oral administration [2]	ED40 [3]	Therap. Quotient LD50/ED25 [1]	Therapeutic Quotient LD50/ED25 [4]	Therapeutic Quotient LD50/ED20 [2]	LD50 (in vivo)	Therapeutic Quotient LD50/ED40 [3]	inhibition at 100 mg/kg [3]	Lethal effect LD50 after single intraperitoneal administration to the mouse (mouse)	LD50 after a single administration mouse (mouse)	Toxicity after single intraperitoneal administration to the mouse LD50 (mouse)	Toxicity after single intraperitoneal administration in the mouse LD50 (mouse)	ED (0.75 degC) (yeast fever of the rat; po)
CCCCC1C(=O)N(c2ccccc2)N(c2ccccc2)C1=O [IX, phenylbutazone, reference compound]	2 mg/kg	15 mg/kg	100 mg/kg/die	40 mg/kg											
CC(C(=O)O)c1ccc(-n2cc(Br)cn2)c(Cl)c1 (stereo not drawn) [V, 2-[3-chloro-4-(4-bromopyrazol-1-yl)phenyl] acid]	0.8 mg/kg	5 mg/kg	~ 10 mg/kg/die	2 mg/kg	406	1625	~ 32.5	325 mg/kg	163						
CN1N=C(c2ccc(CC(=O)O)cc2)CC1c1ccccc1 (stereo not drawn) [XIII, 4-(1-methyl-5-phenyl-2-pyrazoline-3-yl)phenylacetic acid, reference compound]				> 100 mg/kg						25%					
CC(C(=O)[O-])c1cc(Cl)c(-n2cccn2)cc1Cl.[Na+] (stereo not drawn)	2.5 mg/kg				420			1050 mg/kg							
CC(C(=O)O)c1cc(Cl)c(-n2cc(Br)cn2)cc1Cl (stereo not drawn) [VII, 2-[2,5-dichloro-4-(4-bromopyrazol-1-yl)phenyl]propionic acid]	1.2 mg/kg				238			285 mg/kg							
COc1ccc2c(c1)c(CC(=O)O)c(C)n2C(=O)c1ccc(Cl)cc1 [X, indomethacin, reference compound]	0.3 mg/kg		3-5 mg/kg/die	4 mg/kg	150	450	12.8	45 mg/kg	11		45 mg/kg i.p.	45 mg/kg i.p.	45 mg/kg i.p.	45 mg/kg i.p.	2.5 mg/kg
O=C(O)Cc1ccc(-c2cc(-c3ccccc3)n(-c3ccccc3)n2)cc1 [XII, 4-(1,5-diphenyl-pyrazol-3-yl)phenylacetic acid, reference compound]				63 mg/kg				200 mg/kg	3						
Cn1nc(-c2ccc(CC(=O)O)cc2)cc1-c1ccccc1 [XI, 4-(1-methyl-5-phenylpyrazol-3-yl)phenylacetic acid, reference compound]				> 100 mg/kg				430 mg/kg	< 4	25%					
O=C(O)Cc1ccc(-n2cc(Cl)cn2)cc1 [II, 4-(4-chloropyrazol-1-yl)phenylacetic acid]				8 mg/kg				460 mg/kg	58						
O=C(O)Cc1ccc(-n2cccn2)cc1 [VIII, 4-(pyrazol-1-yl)phenylacetic acid]		32 mg/kg		8 mg/kg				1200 mg/kg	150					1200 mg/kg i.p.	
O=C(O)Cc1ccc(-n2cc(Cl)cn2)c(Cl)c1 [IV, 3-chloro-4-(4-chloropyrazol-1-yl)phenylacetic acid]	2.5 mg/kg		20 mg/kg/die	2 mg/kg	184	657	23.0	460 mg/kg	230		460 mg/kg i.p.	460 mg/kg i.p.	460 mg/kg i.p.		
CC(C(=O)O)c1ccc(-n2cc(Cl)cn2)c(Cl)c1 (stereo not drawn) [I, 2-[3-chloro-4-(4-chloropyrazol-1-yl)phenyl]-propionic acid]	0.4 mg/kg	3.5 mg/kg	3 mg/kg/die	5 mg/kg	813	1625	108.3	325 mg/kg	65		325 mg/kg i.p.	325 mg/kg i.p.	325 mg/kg i.p.	325 mg/kg i.p.	
O=C(O)Cc1ccc(-n2cc(Br)cn2)cc1 [III, 4-(4-bromopyrazol-1-yl)phenylacetic acid]	1.2 mg/kg	20 mg/kg		4 to 5 mg/kg	458			550 mg/kg	122				550 mg/kg i.p.	550 mg/kg i.p.	
